Data as given in the CheMixHub viscosity set.

Assay: xn = mol fraction of the nth substance listed

Oc1cccc2ccccc12 + CCCO
viscosity [mPa·s], 101 kPa
Settings	x1 = 0.04	x1 = 0.08	x1 = 0.12	x1 = 0.16	x1 = 0.2
293.15 K	2.564	2.904	3.349	3.844	4.423
303.15 K	1.999	2.245	2.528	2.863	3.26
313.15 K	1.592	1.696	1.867	2.114	2.396
323.15 K	1.293	1.403	1.567	1.748	1.954

C=C1CCC2CC1C2(C)C (stereo not drawn) + CCCCCC
298.15 K, 101.33 kPa
Settings	viscosity [mPa·s]
x2 = 0.0421	1.455
x2 = 0.0626	1.392
x2 = 0.2031	1.055
x2 = 0.2799	0.914
x2 = 0.3765	0.772
x2 = 0.4939	0.634
x2 = 0.5597	0.57
x2 = 0.6601	0.488
x2 = 0.7454	0.427
x2 = 0.8217	0.381
x2 = 0.8935	0.344
x2 = 0.9595	0.312

C[C@H](O)C(=O)O + O
viscosity [mPa·s], 101 kPa
Settings	x1 = 0.000625	x1 = 0.000941	x1 = 0.00124	x1 = 0.00156	x1 = 0.001899	x1 = 0.002188	x1 = 0.002523	x1 = 0.002822	x1 = 0.003145
298.15 K	0.898	0.902	0.906	0.91	0.914	0.917	0.922	0.926	0.929
308.15 K	0.731	0.734	0.736	0.738	0.741	0.744	0.747	0.75	0.753
318.15 K	0.601	0.602	0.604	0.605	0.607	0.61	0.612	0.614	0.616

CCCC(N)=O + O
298.15 K, 101 kPa
Settings	viscosity [mPa·s]
x1 = 0.00213	0.906
x1 = 0.0179	1.122
x1 = 0.0403	1.458
x1 = 0.04319	1.511

CCCC[N+](CCCC)(CCCC)CCCC.[Br-] + CC(O)CO
101 kPa, x1 = 0.2
Settings	viscosity [mPa·s]
298.15 K	96.3
303.15 K	71.6
308.15 K	54.5
313.15 K	42.1
318.15 K	33.2
323.15 K	26.6

CCCC[N+](CCCC)(CCCC)CCCC.[Br-] + OCCO
Settings	viscosity [mPa·s]
293.15 K, 101 kPa, x1 = 0.333	187.3
298 K, 100 kPa, x2 = 0.75	98
298 K, 101.33 kPa, x1 = 0.2	41.51
298.15 K, 100 kPa, x1 = 0.333	188
298.15 K, 101 kPa, x1 = 0.2	69
303.15 K, 100 kPa, x1 = 0.2	161.7
303.15 K, 101 kPa, x1 = 0.2	53.8
303.15 K, 101 kPa, x1 = 0.333	124
308 K, 100 kPa, x2 = 0.75	57
308.15 K, 101 kPa, x1 = 0.2	42.6
313.15 K, 100 kPa, x1 = 0.2	102.1
313.15 K, 101 kPa, x1 = 0.2	31.2
313.15 K, 101 kPa, x1 = 0.333	84.3
318 K, 100 kPa, x2 = 0.75	35
318.15 K, 101 kPa, x1 = 0.2	27.8
323.15 K, 100 kPa, x1 = 0.2	61.85
323.15 K, 101 kPa, x1 = 0.2	21.7
323.15 K, 101 kPa, x1 = 0.333	58.7

CN1CCCN2CCCN=C12 + CC(=O)O
100 kPa, x1 = 0.1125
Settings	viscosity [mPa·s]
294.45 K	12.9
298.17 K	11.3
308.1 K	8.1
323.06 K	5.4

CCCC[N+](CCCC)(CCCC)CCCC.[Br-] + OCCOCCO
viscosity [mPa·s]
Settings	293.15 K	303.15 K	313.15 K	323.15 K
100 kPa, x1 = 0.2	–	265.6	165.5	92.86
101 kPa, x2 = 0.667	203.9	150.6	87.28	57.39
